# Assay results reported in patent US9120764B2, “Chromene derivatives” (Consejo Superior de Investigaciones Cientificas, priority 2010, dated 2015).
# Tests used:
# [1] = tested on: primary T lymphocytes; experiment: Inhibition of the production of cytokines by T lymphocytes caused by stimulation of the TCR; format: cell-based, human; details: anti-CD3 10 μg/ml plus anti-CD28 1 μg/ml; IFNγ at 24 hours, TNFα, IL6, IL17a at 48 hours; FIG. 4
# Method: The effect of the compounds ECRA20, ECRA24, and CBM-1 on the ability of the TCR to induce the secretion of cytokines by T lymphocytes, was evaluated in primary T lymphocytes obtained from blood of healthy human donor. Lymphocytes were stimulated with 10 μg/ml of anti-CD3 plus 1 μg/ml of anti-CD28 in the presence of the indicated quantities of the compounds and the cell supernatants were collected at 24 hours (IFNγ) and 48 hours (TNFα, IL6, and IL17a) to measure the concentration of cytokines secreted in the medium (FIG. 4).
# [2] = tested on: primary T lymphocytes; experiment: Inhibition of the proliferation of T lymphocytes caused by stimulation of the TCR (CFSE, flow cytometry); format: cell-based, human; details: anti-CD3 10 μg/ml, 3 days, CFSE proliferation index; FIG. 3
# Method: The effect of compounds ECRA20, ECRA24 and CBM-1 on the ability of the TCR to induce T lymphocyte proliferation was evaluated in primary T lymphocytes obtained from blood of healthy human donors. T lymphocytes were marked permanently with the fluorescent compound Carboxyfluorescein succinimidyl ester (CFSE) and incubated for 3 days at 37° C. on 96-well plates coated with antibody anti-CD3 (10 μg/ml) in the presence of the indicated concentrations of the compounds. Proliferation index was calculated from the intensity of fluorescence of CFSE measured by flow cytometry. As the cells divide they lose CFSE fluorescence because original fluorescence is divided between the daughter cells. This way each division is followed by a […] of CFSE per cell. So it is possible to calculate the number of divisions. Proliferation index is calculated by dividing the sum of the number of divisions by the calculated number of original parent cells, which have not divided any time. Black square indicates the rate of proliferation of lymphocytes stimulated and not treated with compounds and white square lymphocytes not stimulated with anti-CD3 (FIG. 3).
# [3] = target: T1, interaction between TCR, through CD3ε, and the Nck SH3.1 domain (Homo sapiens, UniProt P16333); experiment: In vitro "pull-down" assay of the TCR-Nck interaction; format: binding; details: Jurkat lysate, GST-SH3.1(Nck) on agarose beads, Western blot densitometry; FIG. 1
# T1 construct: the amino-terminal human Nck1 SH3.1 domain; made in house; host or cells: bacterial cultures (GST-SH3.1); the TCR/CD3ε is endogenous, from a lysate of human Jurkat cells
# Method: To do so, 10 million from human T cell line Jurkat were stimulated with 10 μg/ml of an anti-CD3 antibody for 5 minutes at 37° C. After the stimulation, the cells were lysed in isotonic buffer containing 0.3% Brij96 detergent. After removing the nucleus and other cellular debris by centrifugation, cell lysate aliquots were incubated with 10 μl of agarose beads covalently bound to glutathione and bound in turn to 5 μg of purified GST-SH3.1 (Nck) protein from bacterial cultures. The GST-SH3.1(Nck) protein corresponds to a fusion protein between glutathione S-transferase (GST) and the amino-terminal human Nck1 SH3.1 domain. Each of the aliquots of the cell lysate were incubated with GST-SH3.1 (Nck) in the presence of the indicated concentrations of inhibitors. After incubation, the agarose beads were collected by centrifugation and the quantity of TCR associated with GST-SH3.1 (Nck) was assessed by SDS-PAGE and Western blot with an antibody against TCR CD3ζ subunit. The quantification of the ratio between the quantity of TCR joined to GST-SH3.1 (Nck) in the presence of each of the concentrations of inhibitors, with respect to the amount that is attached in the absence of inhibitors, was evaluated by densitometry and is expressed under each rail as a percentage (FIG. 1).
Compound,production of cytokines by T lymphocytes caused by stimulation of the TCR [1],proliferation of T lymphocytes in response to stimulation of the TCR [2],"effect on the interaction between TCR, through CD3ε, and the Nck SH3.1 domain [3]"
"Fc1ccc(C2=C(CN3CCCC3)COc3ccccc32)cc1 [ECRA20, 1-((4-(4-Fluorophenyl)-2H-cromen-3-il)methyl)pyrrolidine]",inhibit the production of cytokines,suppress the proliferation of T lymphocytes,inhibitory effect
"COc1ccc2c(c1)C(c1ccc(F)cc1)=C(CN1CCCC1)CO2 [ECRA24, 1-((4-(4-Fluorophenyl)-6-methoxy-2H-chromen-3-yl)methyl)pyrrolidine]",inhibit the production of cytokines,suppress the proliferation of T lymphocytes,inhibitory effect
